Test results: patent publication US7964531B2, “3-phenoxy-4-pyridazinol derivatives and herbicidal composition containing the same” (Mitsui Chemicals Agro, Inc., priority 2001, dated 2011)

SMILES | melting point [°C]
CCOC(=O)Oc1cc(Cl)nnc1Oc1ccccc1C [Compound No. 1706, 6-Chloro-3-(2-methylphenoxy)-4-pyridazinyl ethyl carbonate] | 73 to 74
Cc1ccccc1Oc1nnc(Cl)cc1OC(=O)OCC(C)C [Compound No. 1757, 6-Chloro-3-(2-methylphenoxy)-4-pyridazinyl isobutyl carbonate] | 46 to 47
Cc1cccc(C2CC2)c1Oc1nnc(Cl)cc1OC(=O)OCC(C)C [Compound No. 1770, 6-Chloro-3-(2-cyclopropyl-6-methylphenoxy)-4-pyridazinyl isobutyl carbonate] | 72 to 74
Cc1ccccc1Oc1nnc(Cl)cc1OC(=O)N1CCCC1 [Compound No. 1924, 6-Chloro-3-(2-methylphenoxy)-4-pyridazinyl 1-pyrrolidinecarboxylate] | 126 to 127
Cc1cccc(C2CC2)c1Oc1nnc(Cl)cc1OC(=O)N1CCCC1 [Compound No. 1937, 6-Chloro-3-(2-cyclopropyl-6-methylphenoxy)-4-pyridazinyl 1-pyrrolidinecarboxylate] | 115 to 118
CS(=O)(=O)Oc1cc(Cl)nnc1Oc1ccccc1C1CC1 [Compound No. 1985, 6-Chloro-3-(2-cyclopropylphenoxy)-4-pyridazinyl methanesulfonate] | 162 to 172
CCS(=O)(=O)Oc1cc(Cl)nnc1Oc1c(C)cccc1C1CC1 [Compound No. 2034, 6-Chloro-3-(2-cyclopropyl-6-methylphenoxy)-4-pyridazinyl ethanesulfonate] | 96 to 97
CCCS(=O)(=O)Oc1cc(Cl)nnc1Oc1ccccc1C [Compound No. 2038, 6-Chloro-3-(2-methylphenoxy)-4-pyridazinyl 1-propanesulfonate] | 72 to 73
CCCS(=O)(=O)Oc1cc(Cl)nnc1Oc1c(C)cccc1C1CC1 [Compound No. 2051, 6-Chloro-3-(2-cyclopropyl-6-methylphenoxy)-4-pyridazinyl 1-propanesulfonate] | 70.5 to 71.5
Cc1cccc(C2CC2)c1Oc1nnc(Cl)cc1OS(=O)(=O)C(F)(F)F [Compound No. 2106, 6-Chloro-3-(2-cyclopropyl-6-methylphenoxy)-4-pyridazinyl trifluoromethanesulfonate] | 64 to 67
Cc1ccccc1Oc1nnc(Cl)cc1OS(=O)(=O)c1ccccc1 [Compound No. 2147, 6-Chloro-3-(2-methylphenoxy)-4-pyridazinyl benzenesulfonate] | 91.5 to 92
Cc1cccc(C2CC2)c1Oc1nnc(Cl)cc1OS(=O)(=O)c1ccccc1 [Compound No. 2176, 6-Chloro-3-(2-cyclopropyl-6-methylphenoxy)-4-pyridazinyl benzenesulfonate] | 105 to 106
Cc1ccccc1Oc1nnc(Cl)cc1OS(=O)(=O)c1ccc(Cl)cc1 [Compound No. 2198, 6-Chloro-3-(2-methylphenoxy)-4-pyridazinyl 4-chlorobenzenesulfonate] | 93 to 94
CC(C)(C)c1ccccc1Oc1nnc(Cl)cc1OS(=O)(=O)c1ccc(Cl)cc1 [Compound No. 2200, 3-(2-tert-Butylphenoxy)-6-chloro-4-pyridazinyl 4-chlorobenzenesulfonate] | 83.5 to 84.5
Cc1ccc(S(=O)(=O)Oc2cc(Cl)nnc2Oc2ccccc2C)cc1 [Compound No. 2220, 6-Chloro-3-(2-methylphenoxy)-4-pyridazinyl 4-methylbenzenesulfonate] | 102 to 104
Cc1ccc(S(=O)(=O)Oc2cc(Cl)nnc2Oc2ccccc2C(C)C)cc1 [Compound No. 2222, 6-Chloro-3-(2-isopropylphenoxy)-4-pyridazinyl 4-methylbenzenesulfonate] | 99 to 100
CCC(C)c1ccccc1Oc1nnc(Cl)cc1OS(=O)(=O)c1ccc(C)cc1 (centres unmarked) [Compound No. 2223, 3-(2-s-Butylphenoxy)-6-chloro-4-pyridazinyl 4-methylbenzenesulfonate] | 65 to 66
